According to US20230132823A1, “BI-FUNCTIONAL COMPOUNDS AND METHODS FOR TARGETED UBIQUITINATION OF ANDROGEN RECEPTOR” (MONTELINO THERAPEUTICS, INC., priority 2020, published 2023):

Assays:
[1] = tested on: progesterone receptor (PR) a and b; assay: Immunoblot of PR in 22Rv1 cells; type: cell-based, human; conditions: 22Rv1, 24 hours, up to 10 μM
Experimental: Cell Culture. Human CaP cell lines, LNCaP, 22Rv1, VCaP, PC3, and DU145 are obtained from the American Type Culture Collection (ATCC) and maintained in the standard culture media: RPMI-1640 supplemented with 10% fetal bovine serum (FBS). LNCaP, 22Rv1, and VCaP are androgen-responsive cell lines, while PC3 and DU145 are not. To establish SAT resistant CaP cell lines, LNCaP, 22Rv1, and VCaP are treated continuously with 10-50 μM abiraterone, apalutamide, darolutamide, or enzalutamide. After 3-6 months, stable cell lines are established and designated as LNCaP-Abi^R, LNCaP-Apa^R, LNCaP-Daro^R, LNCaP-Enz^R, VCaP-Abi^R, VCaP-Apa^R, VCaP-Daro^R, VCaP-Enz^R, 22Rv1-Abi^R, 22Rv1-Apa^R, 22Rv1-Daro^R and 22Rv1-Enz^R. Unless otherwise specified, the standard culture media for these SAT-resistant cell lines included 10 μM of their respective SAT. For the proteasome inhibitor study, the inhibitors MG132 and Epoxomicin are used. The E3 ligase inhibitors Heclin, Nutlin 3a, Thalidomide, and VH298 are used. […] Mycoplasma contamination is also assessed using a PCR based detection system.
Immunoblot Analysis. […] Cell lysates are then centrifuged and protein in the supernatant is quantified. […] Following the incubation with appropriate secondary antibody, immunoblots are analyzed using SuperSignal West Femto Maximum Sensitivity Substrate (ThermoFisher).

22Rv1 = 22Rv1 cell proliferation assay (Experimental Example 3); type: cell-based, human; conditions: for 22Rv1 cell count, % of control: 6 days
Experimental: The human prostate cancer cell line, 22Rv1 has been reported to express a high level of AR-V7. […] Standard culture media was RPMI-1640 supplemented with 10% fetal bovine serum. The test compound initially was dissolved in DMSO at 50 mM. This stock solution was then diluted as needed for the indicated concentrations. […]
(§1) Cell Culture. Human CaP cell lines, LNCaP, 22Rv1, VCaP, PC3, and DU145 are obtained from the American Type Culture Collection (ATCC) and maintained in the standard culture media: RPMI-1640 supplemented with 10% fetal bovine serum (FBS). LNCaP, 22Rv1, and VCaP are androgen-responsive cell lines, while PC3 and DU145 are not. To establish SAT resistant CaP cell lines, LNCaP, 22Rv1, and VCaP are treated continuously with 10-50 μM abiraterone, apalutamide, darolutamide, or enzalutamide. After 3-6 months, stable cell lines are established and designated as LNCaP-Abi^R, LNCaP-Apa^R, LNCaP-Daro^R, LNCaP-Enz^R, VCaP-Abi^R, VCaP-Apa^R, VCaP-Daro^R, VCaP-Enz^R, 22Rv1-Abi^R, 22Rv1-Apa^R, 22Rv1-Daro^R and 22Rv1-Enz^R. Unless otherwise specified, the standard culture media for these SAT-resistant cell lines included 10 μM of their respective SAT. For the proteasome inhibitor study, the inhibitors MG132 and Epoxomicin are used. The E3 ligase inhibitors Heclin, Nutlin 3a, Thalidomide, and VH298 are used. Cell lines obtained from ATCC are confirmed by checking their morphology using optical microscopy, establishing baselines for cell proliferation, verifying species of origin using isoenzymology, and characterizing the cell's DNA fingerprint using short tandem repeat (STR) profiling. Mycoplasma contamination is also assessed using a PCR based detection system.

LNCaP = LNCaP cell proliferation; type: cell-based, human; conditions: androgen-responsive cell line; 1 μM
Experimental: The human prostate cancer cell line, 22Rv1 has been reported to express a high level of AR-V7. Thus, 22Rv1 was seeded at 50,000 cells/well on a 24-well plate in quadruplicates and treated with test compound in concentrations ranging up to 20 μM for four days. Standard culture media was RPMI-1640 supplemented with 10% fetal bovine serum. The test compound initially was dissolved in DMSO at 50 mM. This stock solution was then diluted as needed for the indicated concentrations. At the end of the four-day period, cells were harvested using 1% trypsin and counted using an automated cell counter.
Cell Culture. Human CaP cell lines, LNCaP, 22Rv1, VCaP, PC3, and DU145 are obtained from the American Type Culture Collection (ATCC) and maintained in the standard culture media: RPMI-1640 supplemented with 10% fetal bovine serum (FBS). LNCaP, 22Rv1, and VCaP are androgen-responsive cell lines, while PC3 and DU145 are not. To establish SAT resistant CaP cell lines, LNCaP, 22Rv1, and VCaP are treated continuously with 10-50 μM abiraterone, apalutamide, darolutamide, or enzalutamide. […] Mycoplasma contamination is also assessed using a PCR based detection system.

[2] = tested on: SAT-resistant CaP cell lines; assay: Cell proliferation assay in twelve SAT-resistant CaP cell lines; type: cell-based, human; conditions: 1 μM, 6 days; all lines except 22Rv1-EnzR
Experimental: as §1, with “system. […]” for “system.”

AR-FL = biological target: T1, AR-FL (Homo sapiens, UniProt P10275, DUP590-628/H875Y); assay: Immunoblot of AR-FL polyubiquitination in 22Rv1 pretreated with MG132; type: cell-based; set-up: decreased AR-V7 and AR-FL protein expression levels in 22Rv1 cells; endogenous in cells; host or cells: 22Rv1; conditions: 22Rv1 pretreated with MG132 two hours; compound 1 μM
T1 sequence (P10275 with tags, fused parts or gaps DUP590-628/H875Y): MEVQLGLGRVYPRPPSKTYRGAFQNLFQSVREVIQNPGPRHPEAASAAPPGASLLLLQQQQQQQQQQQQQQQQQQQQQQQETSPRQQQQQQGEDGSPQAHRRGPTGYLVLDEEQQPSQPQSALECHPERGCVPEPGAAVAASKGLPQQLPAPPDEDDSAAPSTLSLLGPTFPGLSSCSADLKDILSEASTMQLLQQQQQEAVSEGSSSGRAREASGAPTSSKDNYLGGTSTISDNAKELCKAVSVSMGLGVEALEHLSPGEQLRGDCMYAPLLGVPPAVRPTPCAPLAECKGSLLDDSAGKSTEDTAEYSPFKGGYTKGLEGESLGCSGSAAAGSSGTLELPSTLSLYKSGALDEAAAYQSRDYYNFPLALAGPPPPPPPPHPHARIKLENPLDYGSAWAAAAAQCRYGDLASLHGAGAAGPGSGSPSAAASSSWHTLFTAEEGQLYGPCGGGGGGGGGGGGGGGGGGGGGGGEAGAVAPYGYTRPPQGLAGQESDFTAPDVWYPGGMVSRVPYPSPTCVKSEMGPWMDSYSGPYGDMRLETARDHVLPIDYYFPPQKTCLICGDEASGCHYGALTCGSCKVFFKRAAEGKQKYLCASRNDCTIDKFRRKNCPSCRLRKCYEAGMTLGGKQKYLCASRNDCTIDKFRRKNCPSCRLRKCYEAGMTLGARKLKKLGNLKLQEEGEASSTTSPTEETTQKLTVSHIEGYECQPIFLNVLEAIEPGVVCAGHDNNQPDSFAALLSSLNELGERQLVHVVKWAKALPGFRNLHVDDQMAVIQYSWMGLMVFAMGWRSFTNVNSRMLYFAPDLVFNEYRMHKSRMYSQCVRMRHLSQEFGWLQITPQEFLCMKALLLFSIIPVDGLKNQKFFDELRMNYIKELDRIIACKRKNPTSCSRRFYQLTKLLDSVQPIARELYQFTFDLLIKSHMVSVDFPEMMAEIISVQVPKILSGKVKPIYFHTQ
Experimental: Immunoblot Analysis. CaP cells are collected and lysed with the lysis buffer (20 mM Tris-HCl (pH 7.5), 150 mM NaCl, 1 mM Na2EDTA, 1 mM EGTA, 1% Triton, 2.5 mM sodium pyrophosphate, 1 mM beta-glycerophosphate, 1 mM Na3VO4, and 1 μg/ml leupeptin) containing 1 mM phenylmethylsulfonyl fluoride (PMSF). Cell lysates are then centrifuged and protein in the supernatant is quantified. After separating 25-50 μg of protein using SDS-PAGE, samples are incubated with AR-V7, GR, PR, ERα, AR-FL, ubiquitin, or β-actin antibodies. For AR-V7, AR-FL, PR, GR, and ERα immunoblots, primary antibody is diluted 1:1000 in 5% skim milk. For the β-actin immunoblot, 1:10000 diluted primary antibody is used. All membranes are incubated overnight at 4° C. Following the incubation with appropriate secondary antibody, immunoblots are analyzed using SuperSignal West Femto Maximum Sensitivity Substrate (ThermoFisher).
To determine the ubiquitination status of AR proteins, 22Rv1 is pretreated with MG132 for two hours prior to adding Compound of Example 16 (at 1 μM).

**Q.** How did the “effect on expression level of progesterone receptor (PR) a and b” value [1] turn out when `Cc1ncsc1-c1ccc([C@H](C)NC(=O)[C@@H]2C[C@@H](O)CN2C(=O)[C@@H](NC(=O)CCCCNC(=O)COc2c(-c3csc(N4CCOCC4)n3)ccc(F)c2F)C(C)(C)C)cc1` [Example 16, (2S,4R)-1-((S)-2-(5-(2-(2,3-difluoro-6-(2-morpholinothiazol-4-yl)phenoxy)acetamido)pentanamido)-3,3-dimethylbutanoyl)-4-hydroxy-N-((S)-1-(4-(4-methylthiazol-5-yl)phenyl)ethyl)pyrrolidine-2-carboxamide] was run?
**A.** no visible effect

**Q.** And the “22Rv1 cell count, % of control” value (22Rv1; 0.01 μM)?
**A.** approximately 90 % of control

**Q.** What about the “22Rv1 cell count, % of control” value (22Rv1; 0.1 μM) of the same molecule?
**A.** ~70 % of control

**Q.** And the “22Rv1 cell count, % of the control (side to side cell line comparison)” value (22Rv1; 1 μM)?
**A.** approximately 40 % of the control

**Q.** What about the “22Rv1 cell count, % of control” value (22Rv1; 1 μM) of the same molecule?
**A.** ~65 % of control

**Q.** What about the “effect on proliferation of LNCaP” value (LNCaP) of the same molecule?
**A.** inhibits the proliferation

**Q.** And the “cell counts of SAT-resistant CaP cell lines, % of control” value [2]?
**A.** 6-80 % of control

**Q.** What about the “time of detection of AR-FL polyubiquitination after treatment” value (AR-FL) of the same molecule?
**A.** 24 h
